According to patent US20110237508A1, “Peptide Formulations and Uses Thereof” (RIJKSUNIVERSITEIT GRONINGEN, priority 2008, published 2011):

Columns and labels:
[1] = oral tablets, simulated tropical conditions; cited from earlier work
[2] = Oxytocin monomer recovery by HP-SEC after 4 weeks storage at 4 or 55° C.; assay type: physicochemical; details: pH 4.5, 4 weeks
Protocol: (§1) As shown herein below, the stabilizing effect of the combination of a buffer and at least one source of divalent metal ions at a concentration of at least 2 mM in an aqueous oxytocin formulation was determined by measuring the recovery of oxytocin (remaining oxytocin as % of initial amount), the amount of oxytocin-monomers (% of total remaining oxytocin) and/or the level of aggregation (aggregated oxytocin as % of total remaining oxytocin) upon prolonged storage at elevated (e.g. 55° C.) temperatures. These parameters can be assessed by using any method for analysis deemed suitable by a person skilled in the art. Examples of suitable methods for analysis include, but are not limited to, reversed-phase high-performance liquid chromatography (RP-HPLC) and high-performance size exclusion chromatography (HP-SEC). Thus, suitable concentrations of divalent metal ions to achieve the stabilizing effect at elevated temperatures can be determined by those skilled in the art. They may vary, e.g. depending on the composition of the formulation or its intended application. In one embodiment, a formulation comprises oxytocin or vasopressin and at least 2 mM, preferably at least 5, more preferably at least 10 mM divalent metal ions and a buffer. In another embodiment, a pH-buffered formulation comprises divalent metal ions in a concentration of up to 150 mM, preferably up to 100 mM, more preferably up to 50 mM. For example, a formulation comprises divalent metal ions in a concentration between 5 and 150 mM, preferably between 10 and 100 mM, more preferably between 10 and 50 mM. In one embodiment, between 2 and 150 mM divalent metal ions, preferably 5-100 mM, such as 10, 20, 25, 30, 40 or 50 mM, and a buffer are used to stabilize an aqueous peptide formulation. In another embodiment, a divalent metal ion concentration in the range from 20 to 100 mM is used, like 30-100 mM, 40-80 mM or 50-70 mM. Other suitable ranges include between 2 and 50 mM, between 30 and 60 mM and between 40 and 70 mM divalent metal ions.
Divalent metal ions (Ca^2+, Mg^2+ and Zn^2+) were added as metal chloride salts (MC12) to a non-buffered formulation comprising oxytocin and pure water (W). The divalent metal ions were used at concentrations of 0, 2, 5, 10 and 50 mM. […] Effects on stability were determined by measuring the recovery of oxytocin and the percentage of oxytocin-monomers.
Samples of each formulation were stored for 4 weeks at 4° C. […] Effects on stability were determined by measuring the recovery of oxytocin and the percentage of oxytocin-monomers.
The thermal stability of oxytocin in the presence of combinations of a buffer and monovalent metal ions was investigated. […] Effects on stability were determined by measuring the recovery of oxytocin and the percentage of oxytocin-monomers. […]

[3] = cited from earlier work
[4] = Long-term stability study at 40° C., oxytocin recovery by RP-HPLC; assay type: physicochemical; details: 10 mM citrate buffer and 50 mM Ca2+, pH 4.5, 6 months at 40° C.
Protocol: (§2) A long-term stability study was performed to assess the thermal stability of pH-buffered oxytocin formulations comprising divalent metal ions over prolonged periods. Citrate buffer (CB) was added in concentrations of 5, 10 or 50 mM to formulations comprising 0.1 mg/ml oxytocin and 0, 10 or 50 mM Ca^2+ (CaCl2). […] Samples of each formulation were stored for 1, 2, 3 or 6 months at 40° C. Thereafter, all samples were stored under cooled conditions (2-8° C.) before analysis by RP-HPLC and HP-SEC. Effects on stability were determined by measuring the recovery of oxytocin and the percentage of oxytocin-monomers.

[5] = Precipitation of oxytocin in citrate buffer with Ca2+; assay type: physicochemical; details: 100 mM Ca2+
Protocol: (§3) Citrate buffer (CB) was used at concentrations of 5, 10 or 50 mM. […] Samples of each formulation were stored for 4 weeks at 4° C. (control) or 55° C. (test). Thereafter, all samples were stored under cooled conditions (2-8° C.) before analysis by RP-HPLC and HP-SEC. Effects on stability were determined by measuring the recovery of oxytocin and the percentage of oxytocin-monomers. The results are presented in FIGS. 4A and 4B (citrate buffer with Ca^2+), 5A and 5B (citrate buffer with Mg^2+) and 6A and 6B (citrate buffer with Zn^2+).

[6] = Long-term stability study at 40° C., oxytocin monomers by HP-SEC; assay type: physicochemical; details: 10 mM citrate buffer and 50 mM Ca2+, pH 4.5, 6 months at 40° C.
Protocol: as §2

[7] = Oxytocin recovery by RP-HPLC after 4 weeks storage at 4 or 55° C.; assay type: physicochemical; details: pH 4.5, 4 weeks
Protocol: as §1, with “ions. […]” for “ions.”
Samples of each formulation were stored for 4 weeks at 4° C. (control) or 55° C. (test). Thereafter, all samples were stored under cooled conditions (2-8° C.) before analysis by RP-HPLC and HP-SEC. Effects on stability were determined by measuring the recovery of oxytocin and the percentage of oxytocin-monomers.
The thermal stability of oxytocin in the presence of combinations of a buffer and monovalent metal ions was investigated. Citrate buffer (CB), acetate buffer (AC) or aspartate buffer (AP) was used at a concentration of 10 mM. Monovalent metal ions Na^+ and K^+ were added in the form of their chloride salt (NaCl and KCl) and used in final concentrations of 10 and 20 mM. […] Samples of each formulation were stored for 4 weeks at 4° C. (control) or 55° C. (test). Thereafter, all samples were stored under cooled conditions (2-8° C.) before analysis by RP-HPLC and HP-SEC. Effects on stability were determined by measuring the recovery of oxytocin and the percentage of oxytocin-monomers.
as §3, with “concentrations of 5, 10 or 50 mM. Divalent metal ions (Ca^2+, Mg^2+ and Zn^2+) were added in the form of their chloride salt (CaCl2, MgCl2 and ZnCl2) and used in final concentrations of 0, 2, 5, 10” for “concentrations of 5, 10”
Divalent metal ions (Ca^2+, Mg^2+ and Zn^2+) were added in the form of their chloride salt (CaCl2, MgCl2 and ZnCl2) and used in final concentrations of 0, 2, 5, 10 or 50 mM. […] Samples of each formulation were stored for 4 weeks at 4° C. […]

## CC[C@H](C)[C@@H]1NC(=O)[C@H](Cc2ccc(O)cc2)NC(=O)CCSSC[C@@H](C(=O)N2CCC[C@H]2C(=O)N[C@@H](CC(C)C)C(=O)NCC(N)=O)NC(=O)[C@H](CC(N)=O)NC(=O)[C@H](CCC(N)=O)NC1=O [desamino-oxytocin]
[1]
  stability of tablets: not stable

## CC[C@H](C)[C@@H]1NC(=O)[C@H](Cc2ccc(O)cc2)NC(=O)[C@@H](N)CSSC[C@@H](C(=O)N2CCC[C@H]2C(=O)N[C@@H](CC(C)C)C(=O)NCC(N)=O)NC(=O)[C@H](CC(N)=O)NC(=O)[C@H](CCC(N)=O)NC1=O [oxytocin]
[2]; 10 mM acetate buffer & 10 mM Na+, 55° C.
  remaining oxytocin in monomeric form: around 30%
[2]; citrate buffer with Ca2+, 55° C.
  percentage of oxytocin monomers: up to 80%
[2]; citrate buffer with Zn2+, 55° C.
  percentage of remaining oxytocin monomers: up to 90%
[2]; non-buffered pure water with divalent metal ions, 4 or 55° C.
  remaining oxytocin-monomers: loss of monomers was only prevented at 4 °C in the presence of Ca^2+ or Zn^2+
[3]; dissolved in commercially obtainable lactated Ringer's solution
  effect on oxytocin stability: no effect on oxytocin stability at all
[3]; in Ringer's, room temperature, 0.08 IU/ml
  stability of oxytocin: already compromised after 30 days
[4]
  original amount of oxytocin preserved: around 70%
[5]
  precipitation: precipitates were observed
[6]
  portion remained in monomeric form: more than 80%
[1]
  stability of tablets: not stable
[7]; 10 mM acetate buffer & 10 mM Na+
  original quantity of oxytocin recovered: ≤ 35%
[7]; 10 mM acetate buffer with 50 mM Ca2+, 50 mM Mg2+ or 50 mM Zn2+
  remaining percentage of oxytocin: Small increases
[7]; 10 mM aspartate buffer with Ca2+ or Mg2+
  stabilizing effect: only smaller effects
[7]; 10 mM aspartate buffer with Zn2+ (2-50 mM)
  stabilizing effect: strong concentration-dependent stabilizing effect
[7]; 10 mM aspartate buffer with Zn2+
  oxytocin remained: Up to 75%
[7]; 10 mM citrate, acetate or aspartate buffer with 10 or 20 mM Na+ or K+
  thermal stability of oxytocin: minor effects
[7]; 50 mM citrate buffer with Ca2+
  oxytocin stability: only increased together with 50 mM Ca^2+
[7]; 50 mM citrate buffer with Mg2+
  oxytocin stability: only increased at 50 mM Mg^2+
[7]; 50 mM citrate buffer with Zn2+
  oxytocin stability: only increased at 50 mM Zn^2+
[7]; 5 or 10 mM citrate buffer and 50 mM Ca2+
  oxytocin stability: Largest increases in stability
[7]; 5 or 10 mM citrate buffer and 50 mM Mg2+
  oxytocin stability: largest increases in stability
[7]; citrate buffer with 2 or 5 mM Zn2+
  oxytocin stability: large increases in stability
[7]; citrate, acetate or aspartate buffer, no divalent metal ions
  oxytocin stability: small increase

## C[C@@H](CO)NC(=O)[C@@H]1C=C2c3cccc4[nH]cc(c34)C[C@H]2N(C)C1 [ergometrine]
[1]
  stability of tablets: not stable
